Results: PMC8708821, “Comprehensive Analysis and Biological Characterization of Venom Components from Solitary Scoliid Wasp Campsomeriella annulata annulata” (Toxins, 2021)
Where two headings read alike, the source gives them in different places. Marks after values point to notes of the source that are not given here. No end group written: not given here.

How the values were obtained:
Vero cells = assay: Toxicity on cell integrity, crystal violet, Vero cells; format: cell-based, Cercopithecus aethiops (African green monkey); details: for cytotoxicity in Vero cells: 0.1, 1 and 10 μmol·L−1, 1, 6, 24 and 48 h, vs untreated cells, n = 3 in triplicate
Method: (§1) The cytotoxic effects of α-campsomerin and β-campsomerin were determined by the staining of attached cells with crystal violet dye, according to the literature. In a 96-well plate (Nest Biotechnology, Rahway, USA), PC12 and Vero cells were put at 2.0 × 10^4 and 1.0 × 10^4 cells/well, respectively. Cells were treated with different concentrations (0.1 to 10 µmol·L^−1) of peptides in 0.10 mL. The plate was incubated for 1, 6, 24, and 48 h at 37 °C. There were control and DMSO groups for each concentration and time course tested, representing untreated cells (just one equal volume of culture medium) and cells treated with DMSO (5%; v/v) diluted in the medium culture, respectively. The media was then aspirated, and the cells were stained with a 0.5 percent crystal violet staining solution (0.5%; m/v), washed, and air-dried. Afterwards, methanol (200 μL) was added, and the absorbance measured at 570 nm using a SpectraMax reader (Molecular Devices, CA, USA). Data were obtained from three independent experiments in triplicate, and were expressed by percentage of cell viability, calculated using the control group as 100% of integrity.

PC12 cells [1] = assay: Toxicity on cell integrity, crystal violet, PC12 cells; format: cell-based, rat
Method: as §1

PC12 cells [2] = assay: Neuroprotective assay against H2O2-induced oxidative stress; format: cell-based, rat
Method: Initially, PC12 cells were seeded at 2 × 10^4 cells/well in a 96-well plate (Nest Biotechnology, Rahway, NJ, USA) for 24 h. To evaluate the neuroprotective effects of peptides, cells were pre-treated at 37 °C with α-campsomerin and β-campsomerin (0.1 to 20 µmol·L^−1), diluted in DMEM medium supplemented with antibiotics without fetal bovine serum for 4 h. […] Cells untreated with H2O2 represent control group in all experiments. Next, all groups were analyzed by the cell integrity.

[3] = molecular target: T1, AChE from Electrophorus electricus (electric eel) Type VI-S (Electrophorus electricus, UniProt O42275); assay: AChE activity, Ellman's technique; format: biochemical; details: positive control; mean ± SD, three independent experiments in triplicate
T1 construct: purchased Sigma-Aldrich Type VI-S
Method: The AChE activity was evaluated spectrophotometrically using Ellman’s technique, as previously reported by Harry et al., with slight modifications. Both peptides (20 μL) at varied concentrations (20, 10, 5, 1, and 0.1 µmol·L^−1), 10 μL of AChE (0.5 U·mL^−1) (Sigma, St. Louis, MO, USA) and 160 μL of 5,5-dithiobis-2-nitrobenzoic acid (DTNB, Ellman’s reagent) 0.33 mM (Sigma, St. Louis, MO, USA) in phosphate buffer (0.1 mo·L^−1, pH 8.0) were placed in triplicate in a microplate, and incubated at room temperature for 10 min after adding 10 μL of acetylthiocholine iodide (20 mmol·L^−1) (Sigma, St. Louis, MO, USA). The hydrolysis of acetylthiocholine iodide leads to production of acetic acid and thiocholine, which reacts with DTNB producing the anion 5-thio-2-nitrobenzoic acid, which was monitored at 412 nm during 20 min in microplate reader (BioTek Instruments, Inc., Winooski, VT, USA. Tetraethyl pyrophosphate (TEPP; Sigma, St. Louis, MO, USA) was used as a positive control. IAChE = [(Ac − As)/Ac] × 100, where Ac = absorbance for the control and As = absorbance for the sample was used to compute the percentage of inhibition (I) of AChE.

neuronal cell lines = details: previous study; neuronal cell integrity and mitochondrial metabolism; ref [28]; cited from earlier work
Text: The venom of solitary wasps is a rich source of neuroactive chemicals, including bradykinin-related peptides, which disrupt the synaptic transmission of the nAChR in the central nervous system of prey. Our group has studied the neuroprotective effects of natural peptides from solitary wasp venoms against the H2O2-induced oxidative stress in neuronal cell lines after different treatments for acute and chronic conditions.. This cell model, which promotes excessive ROS generation, with consequent neurotoxic effects, represents typical characte ...

mast cells [4] = assay: Histamine-releasing activity; format: cell-based
Method: (§2) Antimicrobial, hemolytic, and histamine-releasing activities were measured as described previously. The microbial species used in this study were: Escherichia coli (NBRC 14237), Staphylococcus aureus (NBRC 12732), and Saccharomyces cerevisiae (NBRC 10217), which were purchased from the Biological Resource Center (BRC, Kisarazu, Japan), National Institute of Technology and Evaluation. The pI of peptides was calculated with IPC (http://isoelectric.org/index.html, accessed on 8 November 2021). The physicochemical properties were examined using HeliQuest (http://heliquest.ipmc.cnrs.fr/, accessed on 8 November 2021).

Hemolytic activity = format: cell-based
Method: as §2

[5] = tested on: Escherichia coli (NBRC 14237); assay: Antimicrobial activity (MIC), E. coli; format: cell-based
Method: as §2

[6] = tested on: Staphylococcus aureus (NBRC 12732); assay: Antimicrobial activity (MIC), S. aureus; format: cell-based
Method: as §2

[7] = tested on: Saccharomyces cerevisiae (NBRC 10217); assay: Antimicrobial activity (MIC), S. cerevisiae; format: cell-based
Method: as §2

[8] = ref Shigeri et al. [34]; cited from earlier work
Text: Table 10 Antimicrobial, hemolytic, and histamine-releasing activities of annulatin and related peptides. | column: Hemolytic Activity (%) / at 10 μmol·L^−1

mast cells [9] = details: ref Shigeri et al. [34]; cited from earlier work
Text: Table 10 Antimicrobial, hemolytic, and histamine-releasing activities of annulatin and related peptides. | column: Histamine Releasing Activity at 10 μmol·L^−1 (%)

neprilysin (NEP) = assay: Stability test: cleavage of peptide by NEP; format: in vitro ADME; details: human, isolated human neprilysin (NEP); peptide 30 µmol·L−1 incubated four hours at 37 °C with NEP (7.5 n); RP-HPLC C-18, UV 214 nm
Method: (§3) Both peptides (30 µmol·L^−1) were incubated for four hours at 37 °C with ACE and NEP (7.5 n). As a negative control, samples containing only synthetic peptides were employed. After incubation, samples were analyzed on a Shim-pack VP-ODS C-18 column (4.6 150 mm) utilizing reverse-phase chromatography on HPLC (Prominence, Shimadzu). Solvent A was 0.1% TFA in water (solvent A), and solvent B was acetonitrile plus solvent A (9:1). Over a 20-min period, separations were carried out at a flow rate of 1 mL/min with a 10–60 percent gradient of solvent B. Elution was always followed by an assessment of UV absorption (214 nm).

ACE I from rabbit lung = molecular target: T2, ACE I from rabbit lung (Oryctolagus cuniculus, UniProt P12822); assay: ACE catalytic activity inhibition (FRET substrate); format: biochemical; details: peptide 20, 30 and 50 μmol·L−1; FRET substrate Abz-FRK(Dnp)P-OH 2, 4, 8 μmol·L−1; 100 mmol·L−1 Tris-HCl, 50 mmol·L−1 NaCl, 10 μmol·L−1 ZnCl2, pH 7.0; 37 °C; 15 min; triplicate
T2 construct: The ACE I from rabbit lung; purchased Sigma-Aldrich; host or cells: rabbit lung
T2 sequence (P12822 34-1310): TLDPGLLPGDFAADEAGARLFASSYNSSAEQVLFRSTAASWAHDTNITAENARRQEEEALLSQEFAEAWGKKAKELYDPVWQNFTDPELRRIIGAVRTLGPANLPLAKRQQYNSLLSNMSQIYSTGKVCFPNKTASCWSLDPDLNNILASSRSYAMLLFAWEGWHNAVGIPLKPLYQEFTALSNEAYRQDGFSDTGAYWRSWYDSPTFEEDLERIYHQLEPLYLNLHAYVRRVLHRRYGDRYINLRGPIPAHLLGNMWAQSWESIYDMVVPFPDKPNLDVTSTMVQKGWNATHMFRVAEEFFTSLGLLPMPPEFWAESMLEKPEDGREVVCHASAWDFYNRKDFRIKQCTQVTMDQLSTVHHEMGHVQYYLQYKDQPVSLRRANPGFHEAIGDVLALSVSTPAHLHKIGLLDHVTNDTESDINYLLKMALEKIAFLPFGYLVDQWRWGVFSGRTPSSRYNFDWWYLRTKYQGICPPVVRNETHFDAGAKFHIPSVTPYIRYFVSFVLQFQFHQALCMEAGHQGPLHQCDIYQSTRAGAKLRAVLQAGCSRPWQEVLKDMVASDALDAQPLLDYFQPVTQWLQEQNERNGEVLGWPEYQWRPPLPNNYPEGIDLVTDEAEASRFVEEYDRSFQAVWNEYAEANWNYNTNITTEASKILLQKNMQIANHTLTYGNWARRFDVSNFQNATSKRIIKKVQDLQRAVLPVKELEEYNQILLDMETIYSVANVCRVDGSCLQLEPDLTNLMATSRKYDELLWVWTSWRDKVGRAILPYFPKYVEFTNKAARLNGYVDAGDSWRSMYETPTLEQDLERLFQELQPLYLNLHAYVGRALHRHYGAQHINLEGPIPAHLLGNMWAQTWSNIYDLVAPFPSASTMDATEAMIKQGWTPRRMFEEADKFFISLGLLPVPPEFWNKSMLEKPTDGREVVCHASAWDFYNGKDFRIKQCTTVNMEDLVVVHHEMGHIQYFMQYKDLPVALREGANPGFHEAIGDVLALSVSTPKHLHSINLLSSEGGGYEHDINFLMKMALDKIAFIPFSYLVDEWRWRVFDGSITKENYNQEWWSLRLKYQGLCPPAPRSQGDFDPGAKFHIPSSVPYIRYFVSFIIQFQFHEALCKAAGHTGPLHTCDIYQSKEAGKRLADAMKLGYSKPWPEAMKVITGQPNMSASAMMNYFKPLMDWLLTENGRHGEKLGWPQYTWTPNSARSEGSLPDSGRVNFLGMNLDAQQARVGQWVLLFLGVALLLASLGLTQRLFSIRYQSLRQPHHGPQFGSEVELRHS
Method: (§4) Experiments were performed using different concentrations of α-campsomerin and β-campsomerin with ACE and NEP, and their FRET substrates, FRK(Dnp)P-OH and Abz-RGFK (Dnp)-OH, respectively. The assays used 7.5 ng of both peptidases and the substrates were added in a 100 mmol·L^−1 Tris-HCl buffer containing 50 mmol·L^−1 NaCl, 10 μmol·L^−1 ZnCl2, pH 7.0 (for ACE assays) and Tris HCl 50 mmol·L^−1, pH 7.5 buffer (for NEP assays). All experiments were carried out at 37 °C and at a final volume of 100 µL Three FRETs substrate concentrations were used (2 μmol·L^−1, 4 μmol·L^−1 and 8 μmol·L^−1), and were incubated with three concentrations of both peptides (20 μmol·L^−1, 30 μmol·L^−1 and 50 μmol·L^−1). Controls without the peptides were also performed in all assays. The reactions were monitored for 15 min on fluorimeter (Victor 3—Perkin–Elmer) and the results were analyzed on GraFit 3.0 from Erithacus Software. All assays were performed in triplicate.

human neprilysin (NEP) = human neprilysin (NEP) (Homo sapiens, UniProt P08473); assay: NEP catalytic activity inhibition (FRET substrate); format: biochemical; details: peptide 20, 30 and 50 μmol·L−1; FRET substrate Abz-RGFK(Dnp)-OH 2, 4, 8 μmol·L−1; Tris HCl 50 mmol·L−1 pH 7.5; 37 °C; 15 min; triplicate
Method: as §4

ACE I = tested on: T3, ACE I; assay: Stability test: cleavage of peptide by ACE; format: in vitro ADME; details: rabbit, isolated ACE I from rabbit lung; peptide 30 µmol·L−1 incubated four hours at 37 °C with ACE (7.5 n); RP-HPLC C-18, UV 214 nm
T3 construct: The ACE I from rabbit lung; purchased Sigma-Aldrich; host or cells: rabbit lung
Method: as §3

[10] = DMSO 5% (v/v), after 6, 24 and 48 h, vs control group

Chain of human neprilysin (NEP) (P08473 whole entry): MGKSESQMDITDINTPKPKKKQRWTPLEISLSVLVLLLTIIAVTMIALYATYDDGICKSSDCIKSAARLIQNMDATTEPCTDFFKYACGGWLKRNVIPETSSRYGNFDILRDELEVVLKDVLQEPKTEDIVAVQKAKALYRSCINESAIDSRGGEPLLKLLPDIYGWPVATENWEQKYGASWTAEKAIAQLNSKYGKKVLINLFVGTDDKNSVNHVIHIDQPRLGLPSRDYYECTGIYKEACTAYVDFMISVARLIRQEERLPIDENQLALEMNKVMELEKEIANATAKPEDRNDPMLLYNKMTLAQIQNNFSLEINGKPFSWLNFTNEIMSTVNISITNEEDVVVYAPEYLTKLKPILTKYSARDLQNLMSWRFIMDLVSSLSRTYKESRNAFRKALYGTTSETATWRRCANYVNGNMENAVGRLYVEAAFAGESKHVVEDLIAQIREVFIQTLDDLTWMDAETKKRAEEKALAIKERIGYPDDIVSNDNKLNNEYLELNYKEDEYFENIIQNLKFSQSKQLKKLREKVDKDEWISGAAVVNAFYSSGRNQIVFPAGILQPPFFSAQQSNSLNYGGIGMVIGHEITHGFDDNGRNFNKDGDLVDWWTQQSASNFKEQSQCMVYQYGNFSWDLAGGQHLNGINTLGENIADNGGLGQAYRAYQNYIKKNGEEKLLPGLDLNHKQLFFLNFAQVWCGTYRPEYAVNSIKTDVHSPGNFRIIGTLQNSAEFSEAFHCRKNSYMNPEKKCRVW
T1 sequence (O42275 24-633): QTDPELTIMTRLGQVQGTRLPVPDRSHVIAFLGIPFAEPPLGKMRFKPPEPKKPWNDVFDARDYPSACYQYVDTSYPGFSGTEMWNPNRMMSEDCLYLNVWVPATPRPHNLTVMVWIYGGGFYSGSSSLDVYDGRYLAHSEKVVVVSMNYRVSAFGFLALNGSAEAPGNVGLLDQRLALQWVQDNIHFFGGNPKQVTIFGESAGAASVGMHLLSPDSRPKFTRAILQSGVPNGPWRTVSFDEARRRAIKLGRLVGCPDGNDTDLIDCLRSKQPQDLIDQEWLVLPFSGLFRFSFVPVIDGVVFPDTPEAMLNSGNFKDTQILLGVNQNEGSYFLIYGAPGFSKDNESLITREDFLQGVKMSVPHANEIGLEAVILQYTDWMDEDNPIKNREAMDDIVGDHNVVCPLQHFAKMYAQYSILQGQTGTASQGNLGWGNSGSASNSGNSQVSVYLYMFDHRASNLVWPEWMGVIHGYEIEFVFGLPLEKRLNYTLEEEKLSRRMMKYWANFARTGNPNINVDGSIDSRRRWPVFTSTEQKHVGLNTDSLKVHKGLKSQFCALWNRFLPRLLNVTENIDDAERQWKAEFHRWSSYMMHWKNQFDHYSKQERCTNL

## C[S+](C)[O-] [DMSO, reference compound]
Vero cells; [10]
  cell integrity in Vero cells, DMSO positive control: decreased cell integrity
PC12 cells [1]; [10]
  cell integrity in PC12 cells, DMSO positive control: decreased cell integrity

## OO [H2O2]
PC12 cells [2]; H2O2 0.5 mmol·L−1, 20 h of treatment
  reduction of PC12 cell integrity by H2O2: 60.5 ± 4.0%
PC12 cells [2]; tested 1–0.06 mmol·L−1, 20 h, dose-dependent
  H2O2 concentrations promoting PC12 cell death: greater than 0.3 mmol·L−1

## CCOP(=O)(OCC)OP(=O)(OCC)OCC [TEPP, tetraethyl pyrophosphate]
[3]
  AChE inhibition percentage: 76.20 ± 1.42%

## DYVTVKGFSPLRKA [β-scoliidine]
Neuronal cell lines
  neuroprotective effects against H2O2-induced neurotoxicity in prolonged therapy: showed neuroprotective effects

## ISEALKSIIVG-NH2 [Annulatin]
Mast cells [4]
  Histamine Releasing Activity at 10 μmol·L−1 (%): 33.0%
Hemolytic activity
  Hemolytic Activity (%) at 12.5 μmol·L−1: 15.4%
[5]
  MIC E. coli (NBRC 14237): Negative
[6]
  MIC S. aureus (NBRC 12732): Negative
[7]
  MIC S. cerevisiae (NBRC 10217): Negative

## Mastoparan
[8]
  Hemolytic Activity (%) at 10 μmol·L−1: 13.5 ^b %
Mast cells [9]
  Histamine Releasing Activity at 10 μmol·L−1 (%): 31.1 ^b %

## Melittin: honeybee hemolytic peptide
[8]
  Hemolytic Activity (%) at 10 μmol·L−1: 100.0 ^b %
Mast cells [9]
  Histamine Releasing Activity at 10 μmol·L−1 (%): 64.3 ^b %

## PRLRRLTGLSPLR [α-campsomerin]
Vero cells
  cytotoxicity in Vero cells: no significant cytotoxicity
Neprilysin (NEP)
  metabolised at 4 h, 30 µmol·L−1: < 0.01%
ACE I from rabbit lung
  Inhibition (%) ACE: <0.01%
Human neprilysin (NEP)
  Inhibition (%) NEP: <0.01%
ACE I
  metabolised at 4 h, 30 µmol·L−1: < 0.01%
PC12 cells [1]; all concentrations tested (0.1, 1, 10 μmol·L−1), 6 h
  PC12 cell integrity after 6 h of treatment: reduced cell integrity

## PRLRRLTGLSPLRAP [β-campsomerin]
Vero cells
  cytotoxicity in Vero cells: no significant cytotoxicity
Neprilysin (NEP)
  metabolised at 4 h, 30 µmol·L−1: < 0.01%
ACE I from rabbit lung
  Inhibition (%) ACE: <0.01%
Human neprilysin (NEP)
  Inhibition (%) NEP: <0.01%
ACE I
  metabolised at 4 h, 30 µmol·L−1: < 0.01%
PC12 cells [1]; 0.1 to 10 µmol·L−1, up to 48 h
  toxicity in PC12 cells under the conditions tested (discussion): not toxic
